In PMC11574021, “CEP192 localises mitotic Aurora-A activity by priming its interaction with TPX2” (The EMBO Journal, 2024):

Experiments:
[1] = target: T1, phosphorylated Aurora-A CAKD (Homo sapiens, UniProt O14965, C290A/C393A); assay: ADP-Glo kinase assay, kemptide substrate; type: biochemical; details: ADP-Glo, phosphorylated Aurora-A CAKD, kemptide; in words
T1 construct: 10 nM Aurora-A 122–403 C290A C393A phosphorylated protein; His (N, cleaved yes); made in house; host or cells: E. coli B834 (no lambda phosphatase)
T1 sequence (O14965 122-403 C290A/C393A): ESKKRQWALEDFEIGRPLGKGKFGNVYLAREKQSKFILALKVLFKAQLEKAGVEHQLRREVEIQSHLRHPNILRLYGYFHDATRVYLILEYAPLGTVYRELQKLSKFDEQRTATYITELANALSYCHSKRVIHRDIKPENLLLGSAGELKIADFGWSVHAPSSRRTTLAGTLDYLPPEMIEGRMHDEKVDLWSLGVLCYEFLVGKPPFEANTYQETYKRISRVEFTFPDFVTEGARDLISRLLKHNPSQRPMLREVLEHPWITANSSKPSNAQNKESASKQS
Summary of the method: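 Reactions started with 10 μM ATP and 100 μM kemptide, 60 min at room temperature, then ADP-Glo luminescence read-out. Control-subtracted signals from three repeats averaged and fitted to sigmoidal curves for IC50 and EC50.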

Eg5 in RPE1 p53-/- cells = assay: Immunofluorescence, Eg5 spindle signal intensity, RPE1 p53-/-; type: cell-based, Homo sapiens; details: Aurora-A inhibitor 30 min (500 nM)
Method: (§1) As noted in the figures, the following drugs were incubated with cells for 30 min at 37 °C: Aurora-B-i ZM447439 2 µM [10 mM], PLK1-I BI2536 1 µM [10 mM] and Aurora-A-i MLN8237 [5 mM] was used at 250 and 500 nM in U251 and RPE1 cells, respectively. Drugs were resuspended in DMSO to the stock concentrations indicated in square brackets. BI2536 (HY-50698), MLN8237 (HY-10971) and ZM447439 (HY-10128) were all purchased from MedChemExpress. For western blotting, a 20-min pre-treatment with proteasome inhibitor (20 µM MG-132, MerckMillipore, 47490 [20 mM]) was required prior to the addition of DMSO control or kinase inhibitors. This prevented mitotic exit as a consequence of checkpoint override following Aurora-A and Aurora-B inhibitor addition.
(§2) For siRNA depletion, 1 × 10^5 cells were seeded in six-well plates and transfected as described above for 48 h prior to fixation. For all other experiments, 2.5 × 10^5 cells were seeded in six-well plates and grown for 24 h before fixation. All cells were grown on 12 mm diameter glass coverslips (VWR, 631–1577). […]
(§3) For CEP192, LATS2-pS83, PCNT, PLK1 and γ-tubulin intensity, a 20-pixel diameter circle was centred over each centrosome and the intensity measured. […]

γ-tubulin in RPE1 cells = assay: Immunofluorescence, γ-tubulin centrosomal signal intensity, RPE1; type: cell-based, Homo sapiens; details: RPE1 p53-/-, Aurora-A inhibitor 30 min
Method: as §1, §2, §3

effect on Aurora-A kinase activity [1]: fully inhibited activity
Structure (SMILES): COc1cc(Nc2ncc3c(n2)-c2ccc(Cl)cc2C(c2c(F)cccc2OC)=NC3)ccc1C(=O)O [Alisertib]
spindle levels of Eg5 (Eg5 in RPE1 p53-/- cells): decrease in spindle levels of Eg5
centrosomal γ-tubulin (γ-tubulin in RPE1 cells): significant drop in centrosomal γ-tubulin
